{"source": "the NIST ThermoML archive (doi:10.1021/je101256z)", "settings": "Liquid, Vibrating wire viscometry", "note": "Where “and” joins values, the source holds several entries; their conditions need not be identical. Equal entries are not always repeated. ± gives the expanded uncertainty stated by the source.", "data": [{"compound": "CC(C)CCCCCCCOC(=O)c1ccccc1C(=O)OCCCCCCCC(C)C", "values": [{"measurement": "viscosity", "setting": "274.07 K, 100 kPa", "result": "606.7 ± 27", "unit": "mPa·s"}, {"measurement": "viscosity", "setting": "274.35 K, 100 kPa", "result": "588.6 ± 26", "unit": "mPa·s"}, {"measurement": "viscosity", "setting": "282.95 K, 100 kPa", "result": "270.2 ± 9.1", "unit": "mPa·s"}, {"measurement": "viscosity", "setting": "283.03 K, 100 kPa", "result": "265.9 ± 8.9", "unit": "mPa·s"}, {"measurement": "viscosity", "setting": "298.15 K, 200 kPa", "result": "87.63 ± 2 mPa·s [middle of 8 runs]"}, {"measurement": "viscosity", "setting": "298.15 K, 10000 kPa", "result": "112.08 ± 2.7 mPa·s and 112.26 ± 2.7 mPa·s"}, {"measurement": "viscosity", "setting": "298.15 K, 20000 kPa", "result": "143.67 ± 3.8 mPa·s and 143.41 ± 3.8 mPa·s and 143.42 ± 3.8 mPa·s"}, {"measurement": "viscosity", "setting": "298.15 K, 40000 kPa", "result": "231.39 ± 7.2 mPa·s [middle of 6 runs]"}, {"measurement": "viscosity", "setting": "298.25 K, 100 kPa", "result": "87.67 ± 2.1", "unit": "mPa·s"}, {"measurement": "viscosity", "setting": "305.15 K, 200 kPa", "result": "57.12 ± 1.2 mPa·s [middle of 5 runs]"}, {"measurement": "viscosity", "setting": "305.26 K, 100 kPa", "result": "57.43 ± 1.2", "unit": "mPa·s"}, {"measurement": "viscosity", "setting": "313.15 K, 200 kPa", "result": "37.1 ± 0.76 mPa·s [middle of 5 runs]"}, {"measurement": "viscosity", "setting": "313.15 K, 10100 kPa", "result": "46.34 ± 0.96 mPa·s and 46.33 ± 0.96 mPa·s and 46.23 ± 0.96 mPa·s"}, {"measurement": "viscosity", "setting": "313.15 K, 20000 kPa", "result": "57.28 ± 1.2 mPa·s and 57.35 ± 1.2 mPa·s and 57.32 ± 1.2 mPa·s"}, {"measurement": "viscosity", "setting": "313.15 K, 40000 kPa", "result": "87.15 ± 1.9 mPa·s and 87.13 ± 1.9 mPa·s and 87.03 ± 1.9 mPa·s"}, {"measurement": "viscosity", "setting": "313.15 K, 59900 kPa", "result": "130.49 ± 3.3 mPa·s and 130.29 ± 3.3 mPa·s"}, {"measurement": "viscosity", "setting": "313.15 K, 60000 kPa", "result": "130.33 ± 3.8", "unit": "mPa·s"}, {"measurement": "viscosity", "setting": "313.15 K, 80000 kPa", "result": "194.08 ± 5.6 mPa·s and 194.41 ± 5.7 mPa·s and 195.2 ± 5.7 mPa·s"}, {"measurement": "viscosity", "setting": "313.27 K, 100 kPa", "result": "37.41 ± 0.78", "unit": "mPa·s"}, {"measurement": "viscosity", "setting": "327.83 K, 100 kPa", "result": "19.32 ± 0.4", "unit": "mPa·s"}, {"measurement": "viscosity", "setting": "343.15 K, 200 kPa", "result": "10.99 ± 0.23 mPa·s [middle of 5 runs]"}, {"measurement": "viscosity", "setting": "343.15 K, 10100 kPa", "result": "13.33 ± 0.29 mPa·s and 13.35 ± 0.29 mPa·s"}, {"measurement": "viscosity", "setting": "343.15 K, 20100 kPa", "result": "15.85 ± 0.33 mPa·s and 15.86 ± 0.33 mPa·s"}, {"measurement": "viscosity", "setting": "343.15 K, 40000 kPa", "result": "22.04 ± 0.47 mPa·s and 22.05 ± 0.47 mPa·s"}, {"measurement": "viscosity", "setting": "343.15 K, 80100 kPa", "result": "41.22 ± 0.89 mPa·s and 41.24 ± 0.89 mPa·s"}, {"measurement": "viscosity", "setting": "343.15 K, 137100 kPa", "result": "95.56 ± 2.2 mPa·s and 95.61 ± 2.2 mPa·s"}, {"measurement": "viscosity", "setting": "343.24 K, 100 kPa", "result": "11.1 ± 0.23", "unit": "mPa·s"}, {"measurement": "viscosity", "setting": "343.33 K, 100 kPa", "result": "11.09 ± 0.23", "unit": "mPa·s"}, {"measurement": "viscosity", "setting": "343.53 K, 100 kPa", "result": "11.15 ± 0.23", "unit": "mPa·s"}, {"measurement": "viscosity", "setting": "368.15 K, 300 kPa", "result": "5.65 ± 0.12", "unit": "mPa·s"}, {"measurement": "viscosity", "setting": "368.21 K, 100 kPa", "result": "5.627 ± 0.12", "unit": "mPa·s"}, {"measurement": "viscosity", "setting": "368.54 K, 100 kPa", "result": "5.577 ± 0.12", "unit": "mPa·s"}, {"measurement": "viscosity", "setting": "373.15 K, 300 kPa", "result": "5.04 ± 0.1 mPa·s and 5.05 ± 0.1 mPa·s and 4.92 ± 0.1 mPa·s"}, {"measurement": "viscosity", "setting": "373.15 K, 20100 kPa", "result": "6.876 ± 0.14 mPa·s and 6.866 ± 0.14 mPa·s"}, {"measurement": "viscosity", "setting": "373.15 K, 40000 kPa", "result": "9.055 ± 0.19 mPa·s and 9.075 ± 0.19 mPa·s and 9.085 ± 0.19 mPa·s"}, {"measurement": "viscosity", "setting": "373.15 K, 80100 kPa", "result": "15.22 ± 0.32 mPa·s and 15.23 ± 0.32 mPa·s"}, {"measurement": "viscosity", "setting": "373.15 K, 137200 kPa", "result": "30.11 ± 0.65 mPa·s and 30.12 ± 0.65 mPa·s and 30.15 ± 0.65 mPa·s"}]}, {"compound": "Cc1cccc2ccccc12", "note": "[1-methylnaphthalene]", "values": [{"measurement": "viscosity", "setting": "298.15 K, 200 kPa", "result": "2.9 ± 0.07 mPa·s and 2.89 ± 0.07 mPa·s"}, {"measurement": "viscosity", "setting": "298.15 K, 1000 kPa", "result": "2.94 ± 0.07 mPa·s and 2.93 ± 0.07 mPa·s and 2.92 ± 0.07 mPa·s"}, {"measurement": "viscosity", "setting": "298.15 K, 10000 kPa", "result": "3.24 ± 0.07", "unit": "mPa·s"}, {"measurement": "viscosity", "setting": "298.15 K, 39900 kPa", "result": "4.4 ± 0.1 mPa·s and 4.41 ± 0.1 mPa·s"}, {"measurement": "viscosity", "setting": "298.15 K, 40000 kPa", "result": "4.42 ± 0.1", "unit": "mPa·s"}, {"measurement": "viscosity", "setting": "298.15 K, 79900 kPa", "result": "6.65 ± 0.15 mPa·s and 6.67 ± 0.15 mPa·s"}, {"measurement": "viscosity", "setting": "298.15 K, 80000 kPa", "result": "6.68 ± 0.15 mPa·s and 6.65 ± 0.15 mPa·s"}, {"measurement": "viscosity", "setting": "298.15 K, 120100 kPa", "result": "10.17 ± 0.24 mPa·s and 10.12 ± 0.23 mPa·s"}]}]}
